PubChem BioAssay (NCI)
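1) Cells in 96-well plates. 2) Compound, 48 h, 5 concentrations. 3) Linear interpolation between surrounding doses. 4) Unreached endpoint = highest concentration. GI50 is the concentration that inhibits growth by half. The concentration for full growth arrest is given as TGI.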

What was measured:
Test in all cases: NCI anticancer screen, dose series, 48 h
[1] = system: SR leukemia
[2] = system: SF-295 CNS
[3] = system: HCT-15 colon
[4] = system: NCI/ADR-RES ovarian
[5] = system: A549 NSCLC
[6] = system: SK-OV-3 ovarian
[7] = system: HOP-92 NSCLC
[8] = system: PC-3 prostate
[9] = system: UACC-257 melanoma
[10] = system: NCI-H522 lung
[11] = system: OVCAR-8 ovarian
[12] = system: EKVX NSCLC
[13] = system: IGROV1 ovarian
[14] = system: HT29 colon
[15] = system: SNB-75 CNS
[16] = system: HOP-62 NSCLC
[17] = system: SK-MEL-5 melanoma
[18] = system: OVCAR-4 ovarian
[19] = system: UACC-62 melanoma
[20] = system: NCI-H460 lung
[21] = system: OVCAR-3 ovarian
[22] = system: HS 578T breast
[23] = system: T-47D breast
[24] = system: M14 melanoma
[25] = system: ACHN renal
[26] = system: SF-268 CNS
[27] = system: COLO 205 colon
[28] = system: SK-MEL-2 melanoma
[29] = system: SN12C renal
[30] = system: LOX IMVI melanoma
[31] = system: SW-620 colon
[32] = system: MDA-MB-231 breast
[33] = system: MALME-3M melanoma
[34] = system: DU-145 prostate
[35] = system: RXF 393 renal
[36] = system: NCI-H226 lung
[37] = system: MOLT-4 leukemia
[38] = system: OVCAR-5 ovarian
[39] = system: UO-31 renal
[40] = system: MDA-MB-435
[41] = system: NCI-H23 lung
[42] = system: U251 CNS
[43] = system: SK-MEL-28 melanoma
[44] = system: MCF7 breast
[45] = system: CCRF-CEM leukemia
[46] = system: SNB-19 CNS
[47] = system: CAKI-1 renal
[48] = system: HCT-116 colon
[49] = system: TK-10 renal
[50] = system: K-562 leukemia
[51] = system: KM12 colon
[52] = system: HL-60(TB) leukemia
[53] = system: 786-0 renal
[54] = system: RPMI-8226 leukemia
[55] = system: SF-539 CNS
[56] = system: BT-549 breast
[57] = system: A498 renal

Question: Which results are given for c1cc2nnc1SCCSCCSCCSc1ccc(nn1)SCCSCCSCCS2?
Answer: TGI [1]: > 100 µM; TGI [2]: > 100 µM; TGI [3]: > 100 µM; TGI [4]: > 100 µM; TGI [5]: > 100 µM; TGI [6]: > 100 µM; TGI [7]: > 100 µM; TGI [8]: > 100 µM; TGI [9]: > 100 µM; TGI [10]: > 100 µM; TGI [11]: > 100 µM; TGI [12]: > 100 µM; TGI [13]: > 100 µM; TGI [14]: > 100 µM; TGI [15]: > 100 µM; TGI [16]: > 100 µM; TGI [17]: > 100 µM; TGI [18]: > 100 µM; TGI [19]: > 100 µM; TGI [20]: > 100 µM; TGI [21]: > 100 µM; TGI [22]: > 100 µM; TGI [23]: > 100 µM; TGI [24]: > 100 µM; TGI [25]: > 100 µM; TGI [26]: > 100 µM; TGI [27]: > 100 µM; TGI [28]: > 100 µM; TGI [29]: > 100 µM; TGI [30]: > 100 µM; TGI [31]: > 100 µM; TGI [32]: > 100 µM; TGI [33]: > 100 µM

Question: With COc1ccccc1/C=C\C(=O)C1COCN1 (stereo unspecified) as the molecule, how does the TGI [34] read?
Answer: 35.6 µM

Question: And the TGI [2]?
Answer: 50.8 µM

Question: And the TGI [3]?
Answer: 35.8 µM

Question: What about the TGI [35] of the same molecule?
Answer: 81.8 µM

Question: And the TGI [4]?
Answer: 52.3 µM

Question: What about the TGI [5] of the same molecule?
Answer: 48.8 µM

Question: What about the TGI [36] of the same molecule?
Answer: 39.7 µM

Question: What about the TGI [37] of the same molecule?
Answer: > 100 µM

Question: And the TGI [6]?
Answer: 30.1 µM

Question: And the TGI [38]?
Answer: 67.4 µM

Question: And the TGI [8]?
Answer: 29.1 µM

Question: What about the TGI [9] of the same molecule?
Answer: 34 µM

Question: And the TGI [10]?
Answer: 36.1 µM

Question: What about the TGI [39] of the same molecule?
Answer: 44 µM

Question: And the TGI [11]?
Answer: 30.6 µM

Question: And the TGI [12]?
Answer: 42.6 µM

Question: What about the TGI [40] of the same molecule?
Answer: 26.4 µM

Question: What about the TGI [41] of the same molecule?
Answer: > 100 µM

Question: What about the TGI [13] of the same molecule?
Answer: 64.6 µM

Question: And the TGI [14]?
Answer: 30.6 µM

Question: And the TGI [42]?
Answer: 28.1 µM

Question: And the TGI [43]?
Answer: 36.6 µM

Question: And the TGI [15]?
Answer: 41.3 µM

Question: And the TGI [16]?
Answer: 57.4 µM

Question: And the TGI [17]?
Answer: 25.1 µM

Question: What about the TGI [18] of the same molecule?
Answer: 53.2 µM

Question: And the TGI [19]?
Answer: 31.9 µM

Question: And the TGI [44]?
Answer: 36.8 µM

Question: What about the TGI [20] of the same molecule?
Answer: > 100 µM

Question: What about the TGI [21] of the same molecule?
Answer: 34.2 µM

Question: And the TGI [45]?
Answer: > 100 µM

Question: What about the TGI [46] of the same molecule?
Answer: 33.9 µM

Question: What about the TGI [47] of the same molecule?
Answer: 42.2 µM

Question: And the TGI [48]?
Answer: > 100 µM

Question: What about the TGI [22] of the same molecule?
Answer: 50.9 µM

Question: What about the TGI [23] of the same molecule?
Answer: 20.7 µM

Question: What about the TGI [24] of the same molecule?
Answer: > 100 µM

Question: What about the TGI [49] of the same molecule?
Answer: 50.8 µM

Question: What about the TGI [25] of the same molecule?
Answer: 26.3 µM

Question: And the TGI [50]?
Answer: > 100 µM

Question: What about the TGI [51] of the same molecule?
Answer: 24.6 µM

Question: And the TGI [26]?
Answer: 64.4 µM

Question: And the TGI [27]?
Answer: 33.2 µM

Question: What about the TGI [28] of the same molecule?
Answer: 56.7 µM

Question: And the TGI [52]?
Answer: > 100 µM

Question: And the TGI [29]?
Answer: 35.1 µM

Question: And the TGI [30]?
Answer: 38.1 µM

Question: And the TGI [31]?
Answer: 19.4 µM

Question: And the TGI [32]?
Answer: 38.8 µM

Question: What about the TGI [53] of the same molecule?
Answer: 75.5 µM

Question: And the TGI [54]?
Answer: 7.53 µM

Question: What about the TGI [33] of the same molecule?
Answer: 45.7 µM

Question: What about the TGI [55] of the same molecule?
Answer: 38.5 µM

Question: CCC1NC(=O)C(NC(=O)c2ncccc2O)C(C)OC(=O)C(c2ccccc2)NC(=O)C2CC(=O)CCN2C(=O)C(Cc2ccccc2)N(C)C(=O)C2CCCN2C1=O (stereo unspecified) was tested. Which TGI [36] did it give?
Answer: > 100 µM

Question: And the TGI [7]?
Answer: > 100 µM

Question: And the TGI [9]?
Answer: > 100 µM

Question: And the TGI [41]?
Answer: > 100 µM

Question: What about the TGI [56] of the same molecule?
Answer: > 100 µM

Question: What does the source list for COCCc1n(Cc2ccc3ccccc3c2)c2ccccc2[n+]1Cc1ccc2ccccc2c1?
Answer: GI50 [34]: 1.06 µM; TGI [34]: 2.33 µM; GI50 [4]: 11.2 µM; TGI [4]: 53 µM; GI50 [5]: 1.46 µM; TGI [5]: 3.03 µM; GI50 [6]: 1.28 µM; TGI [6]: 2.59 µM; GI50 [7]: 0.214 µM; TGI [7]: 1.13 µM; GI50 [38]: 1.11 µM; TGI [38]: 2.47 µM; GI50 [8]: 0.412 µM; TGI [8]: 1.62 µM; GI50 [9]: 0.456 µM; TGI [9]: 1.77 µM; GI50 [39]: 1.48 µM; TGI [39]: 2.88 µM; GI50 [40]: 0.41 µM; TGI [40]: 1.56 µM; GI50 [14]: 0.379 µM; TGI [14]: 1.51 µM; GI50 [43]: 0.567 µM; TGI [43]: 1.97 µM; GI50 [16]: 1.26 µM; TGI [16]: 2.73 µM; GI50 [57]: 1.54 µM; TGI [57]: 2.98 µM; GI50 [17]: 0.371 µM; TGI [17]: 1.36 µM; GI50 [18]: 0.329 µM; TGI [18]: 1.34 µM; GI50 [19]: 0.384 µM; TGI [19]: 1.52 µM; GI50 [21]: 0.451 µM; TGI [21]: 1.72 µM; GI50 [49]: 1.26 µM; TGI [49]: 2.65 µM; GI50 [25]: 1.61 µM; TGI [25]: 2.99 µM; GI50 [51]: 0.415 µM; TGI [51]: 1.64 µM; GI50 [31]: 1.11 µM; TGI [31]: 2.59 µM; GI50 [32]: 0.536 µM; TGI [32]: 1.94 µM; GI50 [53]: 1.28 µM; TGI [53]: 2.76 µM; GI50 [33]: 0.443 µM; TGI [33]: 1.72 µM
